Data from US11000033B2, “Ketone or oxime compound, and herbicide” (NISSAN CHEMICAL CORPORATION, priority 2014, dated 2021).

Experiments:
Type in all cases: in vivo
Digitaria ciliaris = assay: Test Example 5: herbicidal effect by foliage application, plastic box (symbol F); details: 320 g/ha, 3 weeks after application
How it was run: (§1)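 Effect is rated 3 weeks after a foliar spray of water-diluted emulsion concentrate at a predetermined herbicide amount. Plants had grown 14 days in a 25° C. to 30° C. greenhouse from seed in sterilized diluvial soil.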

transplanted rice plant = assay: Test Example 1: effect on crop, application before weed generation in submerged conditions (symbol a); details: application herbicide amount 320 g/ha
How it was run: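 Alluvial soil pots flooded to 4 cm water, sown with Echinochloa oryzacola, Scirpus juncoides and Monochoria vaginalis, then transplanted with 2.5 leaf stage rice seedlings; pre-emergence application. Greenhouse 25° C. to 30° C.; scored 0–5 by herbicidal ratio 3 weeks after application.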

corn = assay: Test Example 5: effect on crop by foliage application, plastic box (symbol c); details: 320 g/ha, 3 weeks after application
How it was run: (§2)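 Greenhouse test at 25° C. to 30° C. Seeds of crops and weeds were spot-sown in boxes of sterilized diluvial soil under roughly 1.5 cm soil cover, then grown for foliage treatment.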

Alopecurus myosuroides = assay: Test Example 5: herbicidal effect by foliage application, plastic box (symbol J); details: 320 g/ha, 3 weeks after application
How it was run: as §1

Chenopodium album = assay: Test Example 4: herbicidal effect by soil treatment (symbol O); details: application herbicide amount 320 g/ha
How it was run: (§3)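 Seeds were sown in sterilized diluvial soil, covered with about 1.5 cm of soil, and the soil surface was sprayed with a water-diluted emulsion of the compound at a predetermined rate. Plants grew in a greenhouse at 25° C. to 30° C.; effects were scored visually 3 weeks after application.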

Monochoria vaginalis = assay: Test Example 1: herbicidal activity, application before weed generation in submerged conditions (symbol C); details: application herbicide amount 320 g/ha
How it was run: (§4)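 Flooded alluvial soil (4 cm water) was mixed-sown with the three weed species, and 2.5-leaf rice seedlings were transplanted. On sowing day, a water-diluted emulsion at a predetermined rate was applied to the water surface. After 3 weeks in a 25–30 °C greenhouse, effect was scored 0–5.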

rice = assay: Test Example 4: effect on crop by soil treatment (symbol b); details: application herbicide amount 320 g/ha
How it was run: (§5)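 Seeds were sown in spots on sterilized diluvial soil in a plastic box and covered with about 1.5 cm of soil. Plants were then grown in a greenhouse at 25° C. to 30° C.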

[1] = tested on: directly sowed rice plant; assay: Test Example 3: effect on crop by foliage application, Wagner pot (symbol b); details: application herbicide amount 320 g/ha
How it was run: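 Plants are raised from seed in flooded paddy conditions: water stands 0.1–0.5 cm over alluvial soil, and the pot is kept in a greenhouse at 25–30 °C. Species sown are barnyardgrass (E. crus-galli var. crus-galli), Leptochloa chinensis, Cyperus difformis and rice.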

Abutilon theophrasti = assay: Test Example 5: herbicidal effect by foliage application, plastic box (symbol M); details: 320 g/ha, 3 weeks after application
How it was run: as §1

Lolium multiflorum Lam. [2] = assay: Test Example 4: herbicidal effect by soil treatment (symbol K); details: application herbicide amount 320 g/ha
How it was run: as §3

[3] = tested on: Echinochloa oryzacola Vasing.; assay: Test Example 1: herbicidal activity, application before weed generation in submerged conditions (symbol A); details: application herbicide amount 320 g/ha
How it was run: as §4

[4] = tested on: Echinochloa crus-galli var. crus-galli; assay: Test Example 5: herbicidal effect by foliage application, plastic box (symbol H); details: 320 g/ha, 3 weeks after application
How it was run: as §1

Lolium multiflorum Lam. [5] = assay: Test Example 5: herbicidal effect by foliage application, plastic box (symbol K); details: 320 g/ha, 3 weeks after application
How it was run: as §1

soybean = assay: Test Example 4: effect on crop by soil treatment (symbol d); details: application herbicide amount 320 g/ha
How it was run: as §5

rice plant = assay: Test Example 5: effect on crop by foliage application, plastic box (symbol b); details: 320 g/ha, 3 weeks after application
How it was run: as §2

Amaranthus retroflexus = assay: Test Example 5: herbicidal effect by foliage application, plastic box (symbol N); details: 320 g/ha, 3 weeks after application
How it was run: as §1

CC(=O)CC1CC(O)=C(c2c(C)cc(-c3ccccc3)cc2C)C1=O (centres unmarked) [7-004]
F: Digitaria ciliaris, herbicidal effect (criteria of Test Example 1) (Digitaria ciliaris): 5 (Herbicidal ratio of 90% or more (almost completely withered))
Effect grade on crop, a: transplanted rice plant (transplanted rice plant): 5 (Herbicidal ratio of 90% or more (almost completely withered))
c: corn, effect on crop (criteria of Test Example 1) (corn): 5 (Herbicidal ratio of 90% or more (almost completely withered))
J: Alopecurus myosuroides, herbicidal effect (criteria of Test Example 1) (Alopecurus myosuroides): 5 (Herbicidal ratio of 90% or more (almost completely withered))
Herbicidal effect grade, O: Chenopodium album (Chenopodium album): 0 (Herbicidal ratio of 5% or lower (almost no effect))
Herbicidal effect grade, C: Monochoria vaginalis (Monochoria vaginalis): 0 (Herbicidal ratio of 5% or lower (almost no effect))
Effect on crop grade, b: directly sowed rice plant (rice): 5 (Herbicidal ratio of 90% or more (almost completely withered))
effect on crop b (directly sowed rice plant), grade 0-5 [1]: 5 (Herbicidal ratio of 90% or more (almost completely withered))
M: Abutilon theophrasti, herbicidal effect (criteria of Test Example 1) (Abutilon theophrasti): 0 (Herbicidal ratio of 5% or lower (almost no effect))
Herbicidal effect grade, K: Lolium multiflorum Lam. (Lolium multiflorum Lam. [2]): 5 (Herbicidal ratio of 90% or more (almost completely withered))
Herbicidal effect grade, A: Echinochloa oryzacola Vasing. [3]: 5 (Herbicidal ratio of 90% or more (almost completely withered))
H: Echinochloa crus-galli var. crus-galli, herbicidal effect (criteria of Test Example 1) [4]: 5 (Herbicidal ratio of 90% or more (almost completely withered))
K: Lolium multiflorum Lam., herbicidal effect (criteria of Test Example 1) (Lolium multiflorum Lam. [5]): 5 (Herbicidal ratio of 90% or more (almost completely withered))
Effect on crop grade, d: soybean (soybean): 0 (Herbicidal ratio of 5% or lower (almost no effect))
b: directly sowed rice plant, effect on crop (criteria of Test Example 1) (rice plant): 5 (Herbicidal ratio of 90% or more (almost completely withered))
N: Amaranthus retroflexus, herbicidal effect (criteria of Test Example 1) (Amaranthus retroflexus): 0 (Herbicidal ratio of 5% or lower (almost no effect))

CC(=O)CC1CC(O)=C(c2c(C)cc(-c3ccc(C(F)(F)F)cc3)cc2C)C1=O (centres unmarked) [7-005]
F: Digitaria ciliaris, herbicidal effect (criteria of Test Example 1) (Digitaria ciliaris): 5 (Herbicidal ratio of 90% or more (almost completely withered))
Effect grade on crop, a: transplanted rice plant (transplanted rice plant): 1 (Herbicidal ratio of 5% or higher and lower than 20%)
c: corn, effect on crop (criteria of Test Example 1) (corn): 4 (Herbicidal ratio of 70% or higher and lower than 90%)
J: Alopecurus myosuroides, herbicidal effect (criteria of Test Example 1) (Alopecurus myosuroides): 2 (Herbicidal ratio of 20% or higher and lower than 40%)
Herbicidal effect grade, O: Chenopodium album (Chenopodium album): 0 (Herbicidal ratio of 5% or lower (almost no effect))
Herbicidal effect grade, C: Monochoria vaginalis (Monochoria vaginalis): 0 (Herbicidal ratio of 5% or lower (almost no effect))
Effect on crop grade, b: directly sowed rice plant (rice): 1 (Herbicidal ratio of 5% or higher and lower than 20%)
effect on crop b (directly sowed rice plant), grade 0-5 [1]: 5 (Herbicidal ratio of 90% or more (almost completely withered))
M: Abutilon theophrasti, herbicidal effect (criteria of Test Example 1) (Abutilon theophrasti): 0 (Herbicidal ratio of 5% or lower (almost no effect))
Herbicidal effect grade, K: Lolium multiflorum Lam. (Lolium multiflorum Lam. [2]): 2 (Herbicidal ratio of 20% or higher and lower than 40%)
Herbicidal effect grade, A: Echinochloa oryzacola Vasing. [3]: 3 (Herbicidal ratio of 40% or higher and lower than 70%)
H: Echinochloa crus-galli var. crus-galli, herbicidal effect (criteria of Test Example 1) [4]: 5 (Herbicidal ratio of 90% or more (almost completely withered))
K: Lolium multiflorum Lam., herbicidal effect (criteria of Test Example 1) (Lolium multiflorum Lam. [5]): 5 (Herbicidal ratio of 90% or more (almost completely withered))
Effect on crop grade, d: soybean (soybean): 0 (Herbicidal ratio of 5% or lower (almost no effect))
b: directly sowed rice plant, effect on crop (criteria of Test Example 1) (rice plant): 4 (Herbicidal ratio of 70% or higher and lower than 90%)
N: Amaranthus retroflexus, herbicidal effect (criteria of Test Example 1) (Amaranthus retroflexus): 0 (Herbicidal ratio of 5% or lower (almost no effect))

COc1ccc(-c2cc(C)c(C3=C(O)CC(CC(C)=O)C3=O)c(C)c2)cc1 (centres unmarked) [7-006]
F: Digitaria ciliaris, herbicidal effect (criteria of Test Example 1) (Digitaria ciliaris): 5 (Herbicidal ratio of 90% or more (almost completely withered))
Effect grade on crop, a: transplanted rice plant (transplanted rice plant): 2 (Herbicidal ratio of 20% or higher and lower than 40%)
c: corn, effect on crop (criteria of Test Example 1) (corn): 4 (Herbicidal ratio of 70% or higher and lower than 90%)
J: Alopecurus myosuroides, herbicidal effect (criteria of Test Example 1) (Alopecurus myosuroides): 3 (Herbicidal ratio of 40% or higher and lower than 70%)
Herbicidal effect grade, O: Chenopodium album (Chenopodium album): 0 (Herbicidal ratio of 5% or lower (almost no effect))
Herbicidal effect grade, C: Monochoria vaginalis (Monochoria vaginalis): 0 (Herbicidal ratio of 5% or lower (almost no effect))
Effect on crop grade, b: directly sowed rice plant (rice): 3 (Herbicidal ratio of 40% or higher and lower than 70%)
effect on crop b (directly sowed rice plant), grade 0-5 [1]: 5 (Herbicidal ratio of 90% or more (almost completely withered))
M: Abutilon theophrasti, herbicidal effect (criteria of Test Example 1) (Abutilon theophrasti): 0 (Herbicidal ratio of 5% or lower (almost no effect))
Herbicidal effect grade, K: Lolium multiflorum Lam. (Lolium multiflorum Lam. [2]): 2 (Herbicidal ratio of 20% or higher and lower than 40%)
Herbicidal effect grade, A: Echinochloa oryzacola Vasing. [3]: 3 (Herbicidal ratio of 40% or higher and lower than 70%)
H: Echinochloa crus-galli var. crus-galli, herbicidal effect (criteria of Test Example 1) [4]: 5 (Herbicidal ratio of 90% or more (almost completely withered))
K: Lolium multiflorum Lam., herbicidal effect (criteria of Test Example 1) (Lolium multiflorum Lam. [5]): 5 (Herbicidal ratio of 90% or more (almost completely withered))
Effect on crop grade, d: soybean (soybean): 1 (Herbicidal ratio of 5% or higher and lower than 20%)
b: directly sowed rice plant, effect on crop (criteria of Test Example 1) (rice plant): 5 (Herbicidal ratio of 90% or more (almost completely withered))
N: Amaranthus retroflexus, herbicidal effect (criteria of Test Example 1) (Amaranthus retroflexus): 0 (Herbicidal ratio of 5% or lower (almost no effect))

CC(=O)CC1CC(O)=C(c2c(C)cc(-c3ccc(C)cc3)cc2C)C1=O (centres unmarked) [7-007]
F: Digitaria ciliaris, herbicidal effect (criteria of Test Example 1) (Digitaria ciliaris): 5 (Herbicidal ratio of 90% or more (almost completely withered))
Effect grade on crop, a: transplanted rice plant (transplanted rice plant): 5 (Herbicidal ratio of 90% or more (almost completely withered))
c: corn, effect on crop (criteria of Test Example 1) (corn): 5 (Herbicidal ratio of 90% or more (almost completely withered))
J: Alopecurus myosuroides, herbicidal effect (criteria of Test Example 1) (Alopecurus myosuroides): 5 (Herbicidal ratio of 90% or more (almost completely withered))
Herbicidal effect grade, O: Chenopodium album (Chenopodium album): 0 (Herbicidal ratio of 5% or lower (almost no effect))
Herbicidal effect grade, C: Monochoria vaginalis (Monochoria vaginalis): 3 (Herbicidal ratio of 40% or higher and lower than 70%)
Effect on crop grade, b: directly sowed rice plant (rice): 4 (Herbicidal ratio of 70% or higher and lower than 90%)
effect on crop b (directly sowed rice plant), grade 0-5 [1]: 5 (Herbicidal ratio of 90% or more (almost completely withered))
M: Abutilon theophrasti, herbicidal effect (criteria of Test Example 1) (Abutilon theophrasti): 0 (Herbicidal ratio of 5% or lower (almost no effect))
Herbicidal effect grade, K: Lolium multiflorum Lam. (Lolium multiflorum Lam. [2]): 5 (Herbicidal ratio of 90% or more (almost completely withered))
Herbicidal effect grade, A: Echinochloa oryzacola Vasing. [3]: 5 (Herbicidal ratio of 90% or more (almost completely withered))
H: Echinochloa crus-galli var. crus-galli, herbicidal effect (criteria of Test Example 1) [4]: 5 (Herbicidal ratio of 90% or more (almost completely withered))
K: Lolium multiflorum Lam., herbicidal effect (criteria of Test Example 1) (Lolium multiflorum Lam. [5]): 5 (Herbicidal ratio of 90% or more (almost completely withered))
Effect on crop grade, d: soybean (soybean): 0 (Herbicidal ratio of 5% or lower (almost no effect))
b: directly sowed rice plant, effect on crop (criteria of Test Example 1) (rice plant): 5 (Herbicidal ratio of 90% or more (almost completely withered))
N: Amaranthus retroflexus, herbicidal effect (criteria of Test Example 1) (Amaranthus retroflexus): 0 (Herbicidal ratio of 5% or lower (almost no effect))

CC(=O)CC1CC(O)=C(c2c(C)cc(-c3ccc(Cl)cc3)cc2C)C1=O (centres unmarked) [7-008]
F: Digitaria ciliaris, herbicidal effect (criteria of Test Example 1) (Digitaria ciliaris): 5 (Herbicidal ratio of 90% or more (almost completely withered))
Effect grade on crop, a: transplanted rice plant (transplanted rice plant): 5 (Herbicidal ratio of 90% or more (almost completely withered))
c: corn, effect on crop (criteria of Test Example 1) (corn): 5 (Herbicidal ratio of 90% or more (almost completely withered))
J: Alopecurus myosuroides, herbicidal effect (criteria of Test Example 1) (Alopecurus myosuroides): 5 (Herbicidal ratio of 90% or more (almost completely withered))
Herbicidal effect grade, O: Chenopodium album (Chenopodium album): 0 (Herbicidal ratio of 5% or lower (almost no effect))
Herbicidal effect grade, C: Monochoria vaginalis (Monochoria vaginalis): 0 (Herbicidal ratio of 5% or lower (almost no effect))
Effect on crop grade, b: directly sowed rice plant (rice): 5 (Herbicidal ratio of 90% or more (almost completely withered))
effect on crop b (directly sowed rice plant), grade 0-5 [1]: 5 (Herbicidal ratio of 90% or more (almost completely withered))
M: Abutilon theophrasti, herbicidal effect (criteria of Test Example 1) (Abutilon theophrasti): 1 (Herbicidal ratio of 5% or higher and lower than 20%)
Herbicidal effect grade, K: Lolium multiflorum Lam. (Lolium multiflorum Lam. [2]): 5 (Herbicidal ratio of 90% or more (almost completely withered))
Herbicidal effect grade, A: Echinochloa oryzacola Vasing. [3]: 4 (Herbicidal ratio of 70% or higher and lower than 90%)
H: Echinochloa crus-galli var. crus-galli, herbicidal effect (criteria of Test Example 1) [4]: 5 (Herbicidal ratio of 90% or more (almost completely withered))
K: Lolium multiflorum Lam., herbicidal effect (criteria of Test Example 1) (Lolium multiflorum Lam. [5]): 5 (Herbicidal ratio of 90% or more (almost completely withered))
Effect on crop grade, d: soybean (soybean): 0 (Herbicidal ratio of 5% or lower (almost no effect))
b: directly sowed rice plant, effect on crop (criteria of Test Example 1) (rice plant): 5 (Herbicidal ratio of 90% or more (almost completely withered))
N: Amaranthus retroflexus, herbicidal effect (criteria of Test Example 1) (Amaranthus retroflexus): 0 (Herbicidal ratio of 5% or lower (almost no effect))
